Assay results as given in ChEMBL document CHEMBL3352098, “A class of 4-sulfamoylphenyl-ω-aminoalkyl ethers with effective carbonic anhydrase inhibitory action and antiglaucoma effects” (J Med Chem, 2014).
Calls of active or inactive are those of the source. The calls are words filed in the database; no cut-off is given here.

Target: Carbonic anhydrase 9 (Homo sapiens, UniProt Q16790)
Assay: Inhibition of human CA-9 by stopped flow CO2 hydrase assay
Conditions: not given

Row | Ki | SMILES
1 | 6.6 nM | NCCCCCOc1ccc(S(N)(=O)=O)cc1
2 | 32.6 nM | NCCCCOc1ccc(S(N)(=O)=O)cc1
3 | 17.9 nM | NCCCOc1ccc(S(N)(=O)=O)cc1
4 | 5.8 nM | CC(C)(C)OC(=O)NCCCOc1ccc(S(N)(=O)=O)cc1
5 | 8.3 nM | CC(C)(C)OC(=O)NCCOc1ccc(S(N)(=O)=O)cc1
6 | 6.5 nM | NCCCCCCOc1ccc(S(N)(=O)=O)cc1
7 | 8.7 nM | NCCOc1ccc(S(N)(=O)=O)cc1

More lines, now with the values behind:

Row | SMILES | Ki
8 | NS(=O)(=O)c1ccc(OCCNC(=S)Nc2ccc(-c3c4ccc(=O)cc-4oc4cc(O)ccc34)c(C(=O)O)c2)cc1 | 8.5 nM
9 | CC(C)(C)OC(=O)NCCCCCCOc1ccc(S(N)(=O)=O)cc1 | 6.9 nM
10 | NS(=O)(=O)c1ccc(OCCCCNC(=S)Nc2ccc(-c3c4ccc(=O)cc-4oc4cc(O)ccc34)c(C(=O)O)c2)cc1 | 8.8 nM
11 | CC(C)(C)OC(=O)NCCCCCOc1ccc(S(N)(=O)=O)cc1 | 7.1 nM
12 | CN(C)c1ccc2c(-c3ccc(NC(=S)NCCCOc4ccc(S(N)(=O)=O)cc4)cc3C(=O)O)c3ccc(=[N+](C)C)cc-3oc2c1 | 7.9 nM
13 | NS(=O)(=O)c1ccc(OCCCNC(=S)Nc2ccc(-c3c4ccc(=O)cc-4oc4cc(O)ccc34)c(C(=O)O)c2)cc1 | 7.2 nM
14 | CN(C)c1ccc2c(-c3ccc(NC(=S)NCCOc4ccc(S(N)(=O)=O)cc4)cc3C(=O)O)c3ccc(=[N+](C)C)cc-3oc2c1 | 9.6 nM

Tested on: Oryctolagus cuniculus
Assay: Antiglaucoma activity in New Zealand albino rabbit assessed as reduction in hypertonic saline-induced intraocular pressure at 2% solution administered topically measured after 2 hrs
Format: functional, organism-based
Conditions: Eye

Row | SMILES | Activity
15 | CC(C)(C)OC(=O)NCCCCOc1ccc(S(N)(=O)=O)cc1 | Active
16 | NCCCCOc1ccc(S(N)(=O)=O)cc1 | Active
